In patent US20250230159A1, “FUSED HETEROCYCLIC COMPOUNDS AS MODULATORS OF RAS SIGNALLING” (Shenzhen Ionova Life Science Co., Ltd., priority 2022, published 2025):
Where two headings read alike, the source gives them in different places.

How the values were obtained:
[1] = biological target: KRAS-G12C/SOS1 interaction (Homo sapiens (Human), UniProt Q07889); assay: Protein-Protein Interaction (PPI) assay, SOS1-KRAS binding assay kit (HTRF)
Experimental: This Example illustrates that exemplary compounds of the present invention blockade the interaction of SOS1 to KRAS protein.
The ability of a compound of Formula (I) to block the interaction of SOS1 to KRAS was measured using a SOS1-KRAS binding assay kit (CAT #63ADK000CB16PEG, Cisbio). Utilizing HTRF (Homogeneous Time-resolved Fluorescence) technology, the assay enables simple and rapid characterization of compound and antibody blockers in a high throughput format. The interaction between Tag1-SOS1 and Tag2-KRAS-G12C is detected by using anti-Tag1-Terbium antibody (HTRF donor) and anti-Tag2-XL665 antibody (HTRF acceptor). When the donor and acceptor antibodies are brought into close proximity due to SOS1 and KRAS-G12C binding, excitation of the donor antibody triggers fluorescent resonance energy transfer (FRET) towards the acceptor antibody, which in turn emits specifically at 665 nm. This specific signal is directly proportional to the extent of KRAS-G12C/SOS1 interaction.
The assay was carried according to the manufacturer's instructions. Compounds at an initial concentration of 10 mM in DMSO were first serially diluted on a 384-well plate using assay buffer at a ratio of 1:3 for a total of 9 concentrations with each of a volume of 20 μL. Blank buffer was included as the negative control. The final compound solution was in the buffer solution with 1% DMSO. Then, in each well of a 384-well plate, a solution of 2 μL compound solution, 4 μL tagged SOS1 and KRAS (G12C) protein stocks, respectively, and 10 μM GTP was incubated for 15 min. 10 μL mixture of […] antibody and anti-Tag1-Terbium antibody was introduced to each individual well. After 2 hours incubation at room temperature, fluorescence readout was measured with a Pelkin Elmer multiple plate reader VICTOR Nivo.
Excitation was from over a range of 245-395 nm, and emission from the donor (emission 1) was detected at […] and emission from the acceptor (emission 2) was detected at (606.5-623.5) nm. The HTRF ratio was calculated using the formula: (emission 1 @665 nm/emission 2 @620 nm)×10000. Thus, compounds blocking KRAS-G12C/SOS1 interaction will cause a reduction in HTRF signal ratio. The IC50 values were then calculated with the Graph pad Prism software.

pERK in Hela cells = assay: Phospho-ERK (p-ERK) assay in Hela cells; format: cell-based; details: Homo sapiens, Table 1, 1 hour with compound, β-actin normalized
Experimental: This Example illustrates that exemplary compounds of the present invention prevent KRas-mediated GTP nucleotide exchange mediated by SOS1 to inhibit KRas activity, thereby inhibiting the generation of the downstream effector pERK.
Hela cells (23,000/w) were seeded in a black clear flat bottom 96-well cell culture plate (Corning, #3904) and incubated at 37° C. overnight. At day 2, cells were dosed with compounds of Formula (I) with a 10 μM starting concentration and serially diluted 3× for a total of 9 concentrations. The cells were incubated for 1 hour with the compounds solubilized in DMSO at 37° C. Cells were immediately fixed by adding 100 μL of 8% formaldehyde to all wells in a fume hood and the plates were incubated for 1 hr at room temperature. The formaldehyde was discarded from the plates and washed 5 times and each time for 5 min with 200 μL of Triton Washing Solution (0.1% Triton in PBS) each time to permeabilize the cells. Cells were then blocked with 150 μL of Odyssey blocking buffer (LI-COR Biosciences #927-50010) at room temperature on a shaker. The blocking buffer was discarded and 50 μL of primary antibodies pERK (cell signaling Technology #4370; Rabbit, 1:500) and β-actin (AF5001; Mouse, 1:2000) diluted in Odyssey blocking buffer was added. The plates were incubated overnight at 4° C. on a shaker.
On day 3, the primary antibody solution was removed. Each plate was washed 5× times with 200 μL of 1×PBST (PBS+0.1% Tween 20) and incubated with 50 μL of secondary antibodies: Anti-Rabbit (LI-COR Biosciences #926-32211) and Anti-Mouse (LI-COR Biosciences #68070) at 1:1000 dilution in Odyssey blocking buffer at room temperature on a shaker for 1 hour (protected from light). The secondary antibody solution as removed and each plate was washed with PBST 5× times. Any liquid remaining was discarded and the plate was imaged using the Licor Odyssey machine according to the manufacturer's instruction, using a set focus length at 3.5 mm and both 800 nm and 700 nm filters. The 3-actin normalized scan values for each well were divided by the average of vehicle wells to get the % of p-ERK inhibition. The IC50 values were then calculated with the Graph pad Prism software. In general, p-ERK IC50 data are in line with the PPI IC50 data.

Chain of KRAS-G12C/SOS1 interaction (Q07889 whole entry, stated change not applied): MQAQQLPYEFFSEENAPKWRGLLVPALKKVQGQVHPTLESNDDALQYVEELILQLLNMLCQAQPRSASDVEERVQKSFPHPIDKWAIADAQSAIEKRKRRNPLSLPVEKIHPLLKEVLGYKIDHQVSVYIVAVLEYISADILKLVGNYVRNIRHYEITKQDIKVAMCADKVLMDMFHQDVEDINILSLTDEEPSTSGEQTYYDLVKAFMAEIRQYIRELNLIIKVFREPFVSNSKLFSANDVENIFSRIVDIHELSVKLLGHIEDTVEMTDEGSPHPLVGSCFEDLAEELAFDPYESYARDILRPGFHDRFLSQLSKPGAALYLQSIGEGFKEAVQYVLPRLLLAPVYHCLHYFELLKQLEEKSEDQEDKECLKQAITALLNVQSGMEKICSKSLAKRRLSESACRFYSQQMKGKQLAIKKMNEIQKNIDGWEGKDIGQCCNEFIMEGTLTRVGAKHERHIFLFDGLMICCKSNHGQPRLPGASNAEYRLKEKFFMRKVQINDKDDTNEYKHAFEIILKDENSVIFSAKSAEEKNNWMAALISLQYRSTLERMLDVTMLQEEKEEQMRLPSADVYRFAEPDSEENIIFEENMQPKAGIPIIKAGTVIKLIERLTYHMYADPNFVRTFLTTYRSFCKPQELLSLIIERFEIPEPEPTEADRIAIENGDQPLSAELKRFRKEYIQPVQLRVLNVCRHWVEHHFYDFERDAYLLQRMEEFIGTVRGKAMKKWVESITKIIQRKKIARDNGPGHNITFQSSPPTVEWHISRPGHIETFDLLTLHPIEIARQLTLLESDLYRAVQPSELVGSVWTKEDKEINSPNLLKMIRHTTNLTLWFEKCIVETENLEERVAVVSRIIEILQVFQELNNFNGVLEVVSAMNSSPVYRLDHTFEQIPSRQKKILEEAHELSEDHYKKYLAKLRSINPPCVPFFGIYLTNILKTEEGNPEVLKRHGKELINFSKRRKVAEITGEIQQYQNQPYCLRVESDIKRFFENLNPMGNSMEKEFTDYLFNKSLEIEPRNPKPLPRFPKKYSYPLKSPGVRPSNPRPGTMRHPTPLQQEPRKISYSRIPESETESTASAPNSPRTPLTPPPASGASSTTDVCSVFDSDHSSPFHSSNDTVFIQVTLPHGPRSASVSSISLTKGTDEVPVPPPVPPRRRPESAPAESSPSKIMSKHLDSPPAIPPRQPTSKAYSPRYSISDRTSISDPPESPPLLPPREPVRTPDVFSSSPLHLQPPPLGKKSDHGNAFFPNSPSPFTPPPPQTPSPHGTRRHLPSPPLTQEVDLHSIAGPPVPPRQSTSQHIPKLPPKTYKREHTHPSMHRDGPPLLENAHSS

Row | Structure (SMILES) | IC50 ([1]; read-out: PPI Assay IC50) [nM] | IC50 (pERK in Hela cells) [nM] | IC50 [1] [nM]
1 | CC(=O)N1CCN(C(=O)c2cc3c(N[C@H](C)c4cccc(C(F)F)c4F)nc(C)nc3n3ncnc23)CC1 [Example 20] | < 100 | > 100 | 
2 | Cc1nc2c(N3CCOC4(CC4)C3=O)cc3c(N[C@H](C)c4cccc(C(F)F)c4F)ncnc3n2n1 [Example 156] | < 100 | < 100 | 
3 | Cc1nc(N[C@H](C)c2cccc(C(F)F)c2F)c2cc(C3(C(F)F)CC3)c3nc(C)nn3c2n1 [Example 171] | < 100 | < 100 | 
4 | Cc1nc(N[C@H](C)c2cccc(C(F)F)c2F)c2cc(C3CCN(C(=O)N(C)C)CC3)c3nncn3c2n1 [Example 69] | < 100 | > 100 | 
5 | Cc1nc(N[C@H](C)c2cc(N)cc(C(F)(F)F)c2)c2cc(C(=O)N3CCOCC3)c3ncnn3c2n1 [Example 2, (R)-(6-((1-(3-amino-5-(trifluoromethyl)phenyl)ethyl)amino)-8-methyl-[1,2,4]triazolo[1′,5′:1,6]pyrido[2,3-d]pyrimidin-4-yl)(morpholino)methanone] | < 100 | > 100 | 
6 | Cc1nc(N[C@H](C)c2cccc(C(F)F)c2F)c2cc(C(=O)N3CCN(C(=O)N(C)C)CC3)c3ncnn3c2n1 [Example 21] | < 100 | > 100 | 
7 | COCC(=O)N1CCC(c2cc3c(N[C@H](C)c4cccc(C(F)F)c4F)nc(C)nc3n3cnnc23)CC1 [Example 68] | < 100 | > 100 | 
8 | CC(=O)N1CCC(C)(c2cc3c(N[C@H](C)c4cccc(C(F)F)c4F)ncnc3n3nnnc23)CC1 [Example 132] | < 100 | < 100 | 
9 | CC(=O)N1CCC(O)(c2cc3c(N[C@H](C)c4cccc(C(F)F)c4F)nc(C)nc3n3cnnc23)CC1 [Example 107, (R)-1-(4-(4-((1-(3-(difluoromethyl)-2-fluorophenyl)ethyl)amino)-2-methyl-[1,2,4]triazolo[4′,3′:1,6]pyrido[2,3-d]pyrimidin-6-yl)-4-hydroxypiperidin-1-yl)ethan-1-one] | < 100 | < 100 | 
10 | C[C@@H](Nc1ncnc2c1cc(N1CCS(=O)(=O)CC1)c1nnnn12)c1cccc(C(F)F)c1F [Example 96] | < 100 | > 100 | 
11 | Cc1nc(N[C@H](C)c2cccc(C(F)F)c2F)c2cc(N3CCOCC3)c3nnnn3c2n1 [Example 91, (R)—N-(1-(3-(difluoromethyl)-2-fluorophenyl)ethyl)-8-methyl-4-morpholinotetrazolo[1′,5′:1,6]pyrido[2,3-d]pyrimidin-6-amine] | < 100 | < 100 | 
12 | CC(=O)N1CCC(c2cc3c(N[C@H](C)c4cccc(C(F)F)c4F)nc(C)nc3n3cnnc23)CC1 [Example 67, (R)-1-(4-(4-((1-(3-(difluoromethyl)-2-fluorophenyl)ethyl)amino)-2-methyl-[1,2,4]triazolo[4′,3′:1,6]pyrido[2,3-d]pyrimidin-6-yl)piperidin-1-yl)ethan-1-one] | < 100 | > 100 | 
13 | Cc1nc(N[C@H](C)c2cccc(C(F)F)c2F)c2cc(C(=O)N3CCSCC3)c3ncnn3c2n1 [Example 17] | < 100 | > 100 | 
14 | C[C@@H](Nc1ncnc2c1cc(C1(C(F)F)CC1)c1nncn12)c1cccc(C(F)F)c1F [Example 173] | < 100 | < 100 | 
15 | Cc1nc(N[C@H](C)c2cc(N)cc(C(F)(F)F)c2)c2cc(N3CCOCC3)c3nnnn3c2n1 [Example 95] | < 100 | < 100 | 
16 | C[C@@H](Nc1ncnc2c1cc(C(=O)N1C3CC1CN(C)C3)c1ncnn12)c1cccc(C(F)F)c1F [Example 47] | < 100 | > 100 | 
17 | C[C@@H](Nc1ncnc2c1cc(N1CC(C(=O)N(C)C)C1)c1nnnn12)c1cccc(C(F)F)c1F [Example 97] | < 100 | > 100 | 
18 | Cc1nc(N[C@H](C)c2cccc(C(F)F)c2F)c2cc(C(=O)N(C)C)c3nnnn3c2n1 [Example 55, (R)-6-((1-(3-(difluoromethyl)-2-fluorophenyl)ethyl)amino)-N,N,8-trimethyltetrazolo[1′,5′:1,6]pyrido[2,3-d]pyrimidine-4-carboxamide] | < 100 | > 100 | 

Row | Structure (SMILES) | IC50 ([1]; read-out: PPI Assay IC50) [nM] | IC50 (pERK in Hela cells) [nM] | IC50 [1] [nM]
19 | C[C@@H](Nc1ncnc2c1cc(N1C(=O)COC[C@@H]1C)c1nncn12)c1cccc(C(F)F)c1F [Example 168] | < 100 | < 100 | 
20 | Cc1nc2c(N3CC4(CC4)OCC3=O)cc3c(N[C@H](C)c4cccc(C(F)F)c4F)ncnc3n2n1 [Example 157] | < 100 | < 100 | 
21 | Cc1nc(N[C@H](C)c2cccc(C(F)F)c2F)c2cc(C(=O)N3CCN(CCO)CC3)c3ncnn3c2n1 [Example 23] | < 100 | > 100 | 
22 | CC(=O)N1CCC(c2cc3c(N[C@H](C)c4cccc(C(F)F)c4F)ncnc3n3nnnc23)CC1 [Example 145] | < 100 | < 100 | 
23 | Cc1nc(N[C@H](C)c2cccc(C(F)F)c2F)c2cc([C@H]3CC[C@H](O)CC3)c3nncn3c2n1 [Example 90-P2, trans-4-(4-(((R)-1-(3-(difluoromethyl)-2-fluorophenyl)ethyl)amino)-2-methyl-[1,2,4]triazolo[4′,3′:1,6]pyrido[2,3-d]pyrimidin-6-yl)cyclohexan-1-ol] | < 100 |  | 
24 | CC(=O)NC1(c2cc3c(N[C@H](C)c4cccc(C(F)F)c4F)ncnc3n3cnnc23)CCN(C(C)=O)CC1 [Example 134, (R)—N-(1-acetyl-4-(4-((1-(3-(difluoromethyl)-2-fluorophenyl)ethyl)amino)-[1,2,4]triazolo[4′,3′:1,6]pyrido[2,3-d]pyrimidin-6-yl)piperidin-4-yl)acetamide] | < 100 |  | 
25 | CC(=O)N1CCC(c2cc3c(N[C@H](C)c4cccc(C(F)F)c4F)nc(C)nc3n3cnnc23)CC1(C)C (stereo partly drawn) [Example 139] | < 100 |  | 
26 | CC(=O)N1CCC(C)(c2cc3c(N[C@H](C)c4cccc(C(F)F)c4F)ncnc3n3cnnc23)CC1 [Example 128] | < 100 |  | 
27 | CNC(=O)c1cc2c(N[C@H](C)c3cccc(C(F)F)c3F)nc(C)nc2n2ncnc12 [Example 9] |  |  | > 100
28 | C[C@@H](Nc1ncnc2c1cc(C(=O)N(C)C)c1ncnn12)c1cccc(C(F)F)c1F [Example 40] | < 100 |  | 
29 | Cc1nc(N[C@H](C)c2cccc(C(F)F)c2F)c2cc(C(=O)N3CCOC[C@H]3C)c3ncnn3c2n1 [Example 15] |  |  | > 100
30 | Cc1nc(N[C@H](C)c2cccc(C(F)F)c2F)c2cc(N3CC(C(=O)N(C)C)C3)c3nnnn3c2n1 [Example 94] | < 100 |  | 
31 | C[C@@H](Nc1ncnc2c1cc(C(=O)N1C3COCC1C3)c1ncnn12)c1cccc(C(F)F)c1F [Example 46] | < 100 |  | 
32 | Cc1nc(N[C@H](C)c2cccc(C(F)F)c2F)c2cc(C(=O)N3C4COCC3C4)c3nnnn3c2n1 [Example 65] |  |  | > 100
33 | C[C@@H](Nc1ncnc2c1cc(C(=O)N1CCC13COC3)c1ncnn12)c1cccc(C(F)F)c1F [Example 43] | < 100 |  | 
34 | Cc1nc(N[C@H](C)c2cccc(C(F)F)c2F)c2cc(C(=O)N(C(C)C)C(C)C)c3nnnn3c2n1 [Example 56] |  |  | > 100
35 | Cc1nc(N[C@H](C)c2cccc(C(F)F)c2F)c2cc(C(=O)N(C(C)C)C(C)C)c3ncnn3c2n1 [Example 7] |  |  | > 100
